From PubChem BioAssay AID200 (DTP/NCI, 2004)
Values joined by “and” are separate entries in the source; they are usually repeats but may differ in a detail not shown here. Identical values can stand only once. Toxic doses and inconclusive results are not listed.

Test system: B6C3F1 mice, B16 melanoma ip, median survival T/C
Assay: NCI In Vivo Anticancer Drug Screen. Data for tumor model B16 Melanoma (intraperitoneal) in B6C3F1 mice
Settings: endpoint: median survival time, higher = longer survival
Summary of the method: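 Mice bearing transplanted tumor were dosed with compound or vehicle, and survival was recorded. Activity is expressed as the treated-group measurement (T) divided by the vehicle control measurement (C).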

[1] = dose: 0.25 mg/kg/injection, schedule: Q01DX009 (ip), vehicle: saline
[2] = dose: 0.5 mg/kg/injection, schedule: Q01DX009 (ip), vehicle: saline
[3] = dose: 1.0 mg/kg/injection, schedule: Q01DX009 (ip), vehicle: saline
[4] = dose: 25.0 mg/kg/injection, schedule: Q01DX009 (ip), vehicle: Klucel (hydroxypropylcellulose) (HPC)
[5] = dose: 50.0 mg/kg/injection, schedule: Q01DX009 (ip), vehicle: Klucel (hydroxypropylcellulose) (HPC)
[6] = dose: 100.0 mg/kg/injection, schedule: Q01DX009 (ip), vehicle: Klucel (hydroxypropylcellulose) (HPC)
[7] = dose: 25.0 mg/kg/injection, schedule: Q01DX009 (ip), vehicle: saline with Tween-80
[8] = dose: 50.0 mg/kg/injection, schedule: Q01DX009 (ip), vehicle: saline with Tween-80
[9] = dose: 100.0 mg/kg/injection, schedule: Q01DX009 (ip), vehicle: saline with Tween-80
[10] = dose: 1.56 mg/kg/injection, schedule: Q01DX009 (ip), vehicle: Klucel (hydroxypropylcellulose) (HPC)
[11] = dose: 3.12 mg/kg/injection, schedule: Q01DX009 (ip), vehicle: Klucel (hydroxypropylcellulose) (HPC)
[12] = dose: 6.25 mg/kg/injection, schedule: Q01DX009 (ip), vehicle: Klucel (hydroxypropylcellulose) (HPC)
[13] = dose: 12.5 mg/kg/injection, schedule: Q01DX009 (ip), vehicle: saline with Tween-80
[14] = dose: 6.25 mg/kg/injection, schedule: Q01DX009 (ip), vehicle: saline
[15] = dose: 25.0 mg/kg/injection, schedule: Q01DX009 (ip), vehicle: saline
[16] = dose: 50.0 mg/kg/injection, schedule: Q01DX009 (ip), vehicle: saline

In the case of `CO[C@@]12[C@H](COC(N)=O)C3=C(C(=O)C(C)=C(N)C3=O)N1C[C@@H]1N[C@@H]12`, the T/C (dose: 0.12 mg/kg/injection, schedule: Q01DX009 (ip), vehicle: Klucel (hydroxypropylcellulose) (HPC)) is reported as 109 % of control, the T/C (dose: 0.12 mg/kg/injection, schedule: Q01DX009 (ip), vehicle: saline with Tween-80) is reported as 119 % of control and the T/C (dose: 0.12 mg/kg/injection, schedule: Q01DX009 (ip), vehicle: saline) is reported as 120 % of control and 100 % of control. For the same compound, the T/C (dose: 0.13 mg/kg/injection, schedule: Q01DX009 (ip), vehicle: water) was 109 % of control and 110 % of control, the T/C (dose: 0.25 mg/kg/injection, schedule: Q01DX005 (ip), vehicle: saline) was 124 % of control and the T/C (dose: 0.25 mg/kg/injection, schedule: Q01DX005 (iv), vehicle: saline) was 107 % of control. The T/C (dose: 0.25 mg/kg/injection, schedule: Q01DX009 (ip), vehicle: Klucel (hydroxypropylcellulose) (HPC)) was 116 % of control, the T/C [1] was 115 % of control and the T/C (dose: 0.25 mg/kg/injection, schedule: Q01DX009 (ip), vehicle: water) was 124 % of control. For the same compound, the T/C (dose: 0.5 mg/kg/injection, schedule: Q01DX001 (ip), vehicle: clinical formulation) was 122 % of control, the T/C (dose: 0.5 mg/kg/injection, schedule: Q01DX005 (ip), vehicle: saline) was 166 % of control and the T/C (dose: 0.5 mg/kg/injection, schedule: Q01DX005 (iv), vehicle: saline) was 86 % of control. For the same compound, the T/C (dose: 0.5 mg/kg/injection, schedule: Q01DX009 (ip), vehicle: Klucel (hydroxypropylcellulose) (HPC)) was 116 % of control, the T/C (dose: 0.5 mg/kg/injection, schedule: Q01DX009 (ip), vehicle: saline with Tween-80) was 166 % of control and the T/C [2] was 161 % of control. For the same compound, the T/C (dose: 0.5 mg/kg/injection, schedule: Q01DX009 (ip), vehicle: water) was 150 % of control, the T/C (dose: 0.75 mg/kg/injection, schedule: Q04DX003 (ip), vehicle: clinical formulation) was 121 % of control and the T/C (dose: 1.0 mg/kg/injection, schedule: Q01DX001 (ip), vehicle: saline) was 165 % of control. The T/C (dose: 1.0 mg/kg/injection, schedule: Q01DX001 (iv), vehicle: saline) was 93 % of control, the T/C (dose: 1.0 mg/kg/injection, schedule: Q01DX005 (ip), vehicle: saline) was 168 % of control and the T/C (dose: 1.0 mg/kg/injection, schedule: Q01DX009 (ip), vehicle: Klucel (hydroxypropylcellulose) (HPC)) was 155 % of control. For the same compound, the T/C (dose: 1.0 mg/kg/injection, schedule: Q01DX009 (ip), vehicle: saline with Tween-80) was 191 % of control, the T/C [3] was 185 % of control and the T/C (dose: 1.0 mg/kg/injection, schedule: Q01DX009 (ip), vehicle: water) was 156 % of control and 173 % of control. For the same compound, the T/C (dose: 1.0 mg/kg/injection, schedule: Q04DX003 (ip), vehicle: clinical formulation) was 156 % of control and 160 % of control, the T/C (dose: 1.25 mg/kg/injection, schedule: Q01DX009 (oral), vehicle: water) was 91 % of control and the T/C (dose: 2.0 mg/kg/injection, schedule: Q01DX001 (ip), vehicle: clinical formulation) was 159 % of control. For the same compound, the T/C (dose: 2.0 mg/kg/injection, schedule: Q01DX001 (iv), vehicle: saline) was 118 % of control, the T/C (dose: 2.0 mg/kg/injection, schedule: Q01DX005 (ip), vehicle: saline) was 179 % of control and the T/C (dose: 2.0 mg/kg/injection, schedule: Q01DX009 (ip), vehicle: water) was 190 % of control. The T/C (dose: 2.0 mg/kg/injection, schedule: Q04DX003 (ip), vehicle: clinical formulation) was 190 % of control and 195 % of control, the T/C (dose: 2.5 mg/kg/injection, schedule: Q01DX009 (oral), vehicle: water) was 102 % of control and the T/C (dose: 3.0 mg/kg/injection, schedule: Q04DX003 (ip), vehicle: clinical formulation) was 203 % of control. For the same compound, the T/C (dose: 4.0 mg/kg/injection, schedule: Q01DX001 (ip), vehicle: clinical formulation) was 193 % of control, the T/C (dose: 4.0 mg/kg/injection, schedule: Q01DX001 (ip), vehicle: saline) was 176 % of control and the T/C (dose: 4.0 mg/kg/injection, schedule: Q01DX001 (iv), vehicle: saline) was 115 % of control. For the same compound, the T/C (dose: 4.0 mg/kg/injection, schedule: Q04DX003 (ip), vehicle: clinical formulation) was 239 % of control, the T/C (dose: 8.0 mg/kg/injection, schedule: Q01DX001 (ip), vehicle: clinical formulation) was 164 % of control and the T/C (dose: 8.0 mg/kg/injection, schedule: Q01DX001 (ip), vehicle: saline) was 216 % of control.
With `c1ccc(CN2COc3c(ccc4c3OCN(Cc3ccccc3)C4)C2)cc1` the T/C [4] was 111 % of control, the T/C [5] was 96 % of control and the T/C [6] was 95 % of control.
With `O=C(Oc1ccccc1)c1cc(O)c(O)c(O)c1` the T/C [7] was 98 % of control, the T/C [8] was 97 % of control and the T/C [9] was 97 % of control. The T/C (dose: 200.0 mg/kg/injection, schedule: Q01DX009 (ip), vehicle: saline with Tween-80) was 87 % of control.
For `COc1cccc2c1C(=O)c1c(O)c3c(c(O)c1C2=O)C[C@@](O)(/C(C)=N\O)C[C@@H]3OC1CC(N)C(O)C(C)O1` (stereo partly drawn), the T/C (dose: 1.5 mg/kg/injection, schedule: Q01DX009 (ip), vehicle: saline) was 160 % of control, the T/C (dose: 3.13 mg/kg/injection, schedule: Q01DX009 (ip), vehicle: water) was 150 % of control and the T/C (dose: 6.0 mg/kg/injection, schedule: Q01DX009 (ip), vehicle: saline) was 164 % of control. For the same compound, the T/C (dose: 6.25 mg/kg/injection, schedule: Q01DX009 (ip), vehicle: water) was 182 % of control, the T/C (dose: 12.0 mg/kg/injection, schedule: Q01DX009 (ip), vehicle: saline) was 217 % of control and the T/C (dose: 12.5 mg/kg/injection, schedule: Q01DX009 (ip), vehicle: water) was 178 % of control. For the same compound, the T/C (dose: 24.0 mg/kg/injection, schedule: Q01DX009 (ip), vehicle: saline) was 204 % of control.
For `N#C[Se-].c1ccc([Te+](c2ccccc2)c2ccccc2)cc1`, the T/C [10] was 92 % of control, the T/C [11] was 97 % of control and the T/C [12] was 96 % of control. For the same compound, the T/C (dose: 12.5 mg/kg/injection, schedule: Q01DX009 (ip), vehicle: Klucel (hydroxypropylcellulose) (HPC)) was 96 % of control.
`CCc1ncnc2cc(OCC3CO3)c(OC)cc12` (stereo not drawn) was tested, and the T/C (dose: 6.25 mg/kg/injection, schedule: Q01DX009 (ip), vehicle: suspension in saline) was 118 % of control and the T/C (dose: 50.0 mg/kg/injection, schedule: Q01DX009 (ip), vehicle: suspension in saline) was 117 % of control.
With `[O-][n+]1c(CN2CCCCC2)nc2cccc3c2c1-c1ccccc1-3` the T/C [13] was 98 % of control, the T/C [7] was 88 % of control and the T/C [8] was 102 % of control. For the same compound, the T/C [9] was 91 % of control and the T/C (dose: 400.0 mg/kg/injection, schedule: Q01DX009 (ip), vehicle: saline with Tween-80) was 103 % of control.
For `O=CC(=O)c1ccc(O)cc1`, the T/C [14] was 94 % of control, the T/C (dose: 12.5 mg/kg/injection, schedule: Q01DX009 (ip), vehicle: saline) was 99 % of control and the T/C [15] was 108 % of control. For the same compound, the T/C [16] was 120 % of control.
In the case of `CN(C)c1ccc2c(Nc3ccc(NS(C)(=O)=O)cc3)c3ccc(N(C)C)cc3nc2c1`, the T/C [4] is reported as 94 % of control, the T/C [5] is reported as 115 % of control and 92 % of control and the T/C [6] is reported as 90 % of control and 104 % of control.
In the case of `COc1cccc2c1C(=O)c1c(O)c3c(c(O)c1C2=O)C[C@@](O)(C(=O)COC(=O)c1cccnc1)C[C@@H]3OC1CC(N)C(O)C(C)O1` (stereo partly drawn), the T/C [1] is reported as 170 % of control, the T/C [2] is reported as 198 % of control and the T/C [3] is reported as 220 % of control. For the same compound, the T/C (dose: 2.0 mg/kg/injection, schedule: Q01DX009 (ip), vehicle: saline) was 255 % of control.
With `CCCCCCCCCCCCCCCC(=O)Nc1ccn(C2OC(CO)C(O)C2O)c(=O)n1` (stereo not drawn) the T/C [14] was 98 % of control, the T/C [15] was 157 % of control and the T/C [16] was 180 % of control.
In the case of `O=C1C2CC(CN3CCCCC23)C2CCCCN12` (stereo not drawn), the T/C (dose: 37.5 mg/kg/injection, schedule: Q01DX009 (ip), vehicle: saline) is reported as 104 % of control, the T/C (dose: 75.0 mg/kg/injection, schedule: Q01DX009 (ip), vehicle: saline) is reported as 105 % of control and the T/C (dose: 150.0 mg/kg/injection, schedule: Q01DX009 (ip), vehicle: saline) is reported as 97 % of control.
In the case of `CCc1cc2c(cc1C(C)=O)C(C)(C)CCC2(C)C`, the T/C (dose: 6.25 mg/kg/injection, schedule: Q01DX009 (ip), vehicle: saline with Tween-80) is reported as 89 % of control, the T/C [13] is reported as 95 % of control and the T/C [7] is reported as 106 % of control.
For `CCCC(=O)OCC1OC(n2cnc3c(=S)nc(N)[nH]c32)C(OC(=O)CCC)C1OC(=O)CCC` (stereo not drawn), the T/C (dose: 0.78 mg/kg/injection, schedule: Q01DX009 (ip), vehicle: Klucel (hydroxypropylcellulose) (HPC)) was 103 % of control, the T/C [10] was 104 % of control and the T/C [11] was 110 % of control. For the same compound, the T/C [12] was 114 % of control.
